Test results from patent publication US12305171B2, “Compositions and methods for treating cancer” (bioAffinity Technologies, Inc., priority 2018, dated 2025).
Where two headings read alike, the source gives them in different places.

Legend:
GM05659 fibroblasts = assay: lentiviral shRNA knockdown of CD320 and LRP2, cell growth observation; format: cell-based; design: key: +++: cells unaffected compared to shSCR (control); ++: cells modestly affected compared to shSCR (control); +: cells significantly affected compared to shSCR (control); 0: vast majority of cells killed compared to shSCR (control); conditions: GM05659, normal cells
Excerpt: (§1) Mechanistic investigations into the selectivity of porphyrin uptake by cancer cells led to several nonobvious compounds and methods of using the compound(s). It was discovered that the knockdown of the expression of either CD320 gene or LRP2 gene or the simultaneous knockdown of the expression of CD320 gene and LRP2 gene caused cell death or inhibition of cell growth in a panel of lung cancer cell lines, compared to normal fibroblasts. The experimental outline is illustrated in FIG. 1. In these experiments, cells were plated on day 0. The next day (day 1), virus particles encoding short hairpin RNAs (shRNAs) directed to the CD320 gene and the LRP2 gene or an irrelevant shRNA control were added to the cell culture together with protamine sulfate, a reagent that facilitates cell entry of the virus particles.
(§2) FIG. 1 illustrates an experimental design for knocking down CD320 and LRP2 in a cell. Cells were plated on day 0. The next day (day 1), virus particles encoding short hairpin RNAs (shRNAs) directed at the CD320 and LRP2 mRNA or a non-targeting shRNA control were added to the cell culture together with protamine sulfate, a reagent that facilitates cell entry of the virus particles. […] Each shRNA coding sequence was also combined with a unique drug resistance gene, which would allow for selecting those cells that had taken up the shRNA; cells that had not taken up the shRNA would not survive. On day 2, drug selection was started. On day 3, the cells were harvested and plated in a new dish. Only the cells with a drug resistance gene, i.e., those cells that had taken up shRNA virus particles would survive this re-plating procedure. From day 4 on, each culture was closely observed for cell growth. Cells infected with the non-targeting negative control shRNA continued growing—data not shown.
FIGS. 2 A-C illustrates sensitivity of cancer cell lines to knockdown of CD320 and LRP2. […] The fields of cells in FIG. 2A were counted and quantified and illustrated in FIG. 2B. […]

MDA-MB-4353 = assay: as above; format: cell-based; design: key: +++: cells unaffected compared to shSCR (control); ++: cells modestly affected compared to shSCR (control); +: cells significantly affected compared to shSCR (control); 0: vast majority of cells killed compared to shSCR (control); conditions: MDA-MB-4353, melanoma cells
Excerpt: as §1, §2
(§3) The Each vector that carried a shRNA coding sequence also contained a unique drug resistance gene which would allow for selecting those cells that had taken up the shRNA as those cells that had not taken up the shRNA having the unique drug resistance gene would not survive. On day 2, drug selection was started. On day 3, the cells were harvested and plated in a new dish. Only the cells with a drug resistance gene, i.e., those cells that had taken up shRNA virus particles would survive this re-plating procedure. From day 4 on, each culture was closely observed for cell growth. The cells that were infected with the irrelevant control shRNA kept on growing as expected (since the shRNA was essentially a non-functional shRNA)—data not shown.
(§4) Additional cancer cell lines were also treated with the compounds described herein to determine whether cancer cell lines were more susceptible to growth inhibition and toxicity as compared to non-cancer cells of the same origin. Cell lines from skin, prostate, and brain cancers were screened similarly to the experimental outline in FIG. 1. Table 3 summarizes the effects of simultaneous knockdown of CD320 and LRP2 in cancer and normal cells.

PC3 = assay: as above; format: cell-based; design: key: +++: cells unaffected compared to shSCR (control); ++: cells modestly affected compared to shSCR (control); +: cells significantly affected compared to shSCR (control); 0: vast majority of cells killed compared to shSCR (control); conditions: PC3, prostate cells
Excerpt: as §1, §2, §3, §4

U343 = assay: as above; format: cell-based; design: key: +++: cells unaffected compared to shSCR (control); ++: cells modestly affected compared to shSCR (control); +: cells significantly affected compared to shSCR (control); 0: vast majority of cells killed compared to shSCR (control); conditions: U343, glioblastoma
Excerpt: as §1, §2, §3, §4

U251MG = assay: as above; format: cell-based; design: key: +++: cells unaffected compared to shSCR (control); ++: cells modestly affected compared to shSCR (control); +: cells significantly affected compared to shSCR (control); 0: vast majority of cells killed compared to shSCR (control); conditions: glioblastoma
Excerpt: as §1, §2, §3, §4

H1993 = assay: as above; format: cell-based; design: key: +++: cells unaffected compared to shSCR (control); ++: cells modestly affected compared to shSCR (control); +: cells significantly affected compared to shSCR (control); 0: vast majority of cells killed compared to shSCR (control); conditions: H1993, lung cells
Excerpt: as §1, §2, §3, §4

T98G = assay: as above; format: cell-based; design: key: +++: cells unaffected compared to shSCR (control); ++: cells modestly affected compared to shSCR (control); +: cells significantly affected compared to shSCR (control); 0: vast majority of cells killed compared to shSCR (control); conditions: glioblastoma
Excerpt: as §1, §2, §3, §4

LncAP = assay: as above; format: cell-based; design: key: +++: cells unaffected compared to shSCR (control); ++: cells modestly affected compared to shSCR (control); +: cells significantly affected compared to shSCR (control); 0: vast majority of cells killed compared to shSCR (control); conditions: prostate cells
Excerpt: as §1, §2, §3, §4

H358 = assay: as above; format: cell-based; design: key: +++: cells unaffected compared to shSCR (control); ++: cells modestly affected compared to shSCR (control); +: cells significantly affected compared to shSCR (control); 0: vast majority of cells killed compared to shSCR (control); conditions: H358, lung cells
Excerpt: as §1, §2, §3, §4

GM00701 = assay: as above; format: cell-based; design: key: +++: cells unaffected compared to shSCR (control); ++: cells modestly affected compared to shSCR (control); +: cells significantly affected compared to shSCR (control); 0: vast majority of cells killed compared to shSCR (control); conditions: GM00701, normal cells
Excerpt: as §1, §2, §3, §4

DU-145 = assay: as above; format: cell-based; design: key: +++: cells unaffected compared to shSCR (control); ++: cells modestly affected compared to shSCR (control); +: cells significantly affected compared to shSCR (control); 0: vast majority of cells killed compared to shSCR (control); conditions: DU-145, prostate cells
Excerpt: as §1, §2, §3, §4

A172 = assay: as above; format: cell-based; design: key: +++: cells unaffected compared to shSCR (control); ++: cells modestly affected compared to shSCR (control); +: cells significantly affected compared to shSCR (control); 0: vast majority of cells killed compared to shSCR (control); conditions: A172, glioblastoma
Excerpt: as §1, §2, §3, §4

H157 = assay: as above; format: cell-based; design: key: +++: cells unaffected compared to shSCR (control); ++: cells modestly affected compared to shSCR (control); +: cells significantly affected compared to shSCR (control); 0: vast majority of cells killed compared to shSCR (control); conditions: H157, lung cells
Excerpt: as §1, §2, §3, §4

HCC15 = assay: as above; format: cell-based; design: key: +++: cells unaffected compared to shSCR (control); ++: cells modestly affected compared to shSCR (control); +: cells significantly affected compared to shSCR (control); 0: vast majority of cells killed compared to shSCR (control); conditions: HCC15, lung cells
Excerpt: as §1, §2, §3, §4

[1] = cited from earlier work

| Molecule | cells affected compared to shSCR (control) (GM05659 fibroblasts) | cells affected compared to shSCR (control) (MDA-MB-4353) | cells affected compared to shSCR (control) (PC3) | cells affected compared to shSCR (control) (U343) | cells affected compared to shSCR (control) (U251MG) | cells affected compared to shSCR (control) (H1993) | cells affected compared to shSCR (control) (T98G) | cells affected compared to shSCR (control) (LncAP) | cells affected compared to shSCR (control) (H358) | cells affected compared to shSCR (control) (GM00701) | cells affected compared to shSCR (control) (DU-145) | cells affected compared to shSCR (control) (A172) | cells affected compared to shSCR (control) (H157) | cells affected compared to shSCR (control) (HCC15) | plasma half-life ([1]; in vivo) [h] | plasma half-life ([1]; desialylated, less abundant form) | plasma half-life ([1]; sialylated, most abundant form) |
| --- | --- | --- | --- | --- | --- | --- | --- | --- | --- | --- | --- | --- | --- | --- | --- | --- | --- |
| shCD320: lentiviral shRNA targeting CD320 (NM_016579.3), location 1006-1026; SEQ ID NO. 943/944 (sense CCCTCAGAGACCTGAGCTCTT; antisense AAGAGCTCAGGTCTCTGAGGG) [lentiviral shRNA targeting CD320 (NM_016579.3), location 1006-1026; 943/944] | +++ | ++ | +++ | +++ | + | ++ | +++ | ++ | ++ | ++ | ++ | + | + | + |  |  |  |
| shSCR: non-targeting control shRNA in lentiviral vector; SEQ ID NO. 941/942 [reference compound] | +++ | +++ | +++ | +++ | +++ | +++ | +++ | +++ | +++ | +++ | +++ | +++ | +++ | +++ |  |  |  |
| shLRP2: lentiviral shRNA targeting LRP2 (NM_004525.2), location 2800-2820; SEQ ID NO. 945/946 (sense CCTGTAATAAACACTACTCTT; antisense AAGAGTAGTGTTTATTACAGG) [lentiviral shRNA targeting LRP2 (NM_004525.2), location 2800-2820; 945/946] | +++ | + | ++ | ++ | ++ | ++ | ++ | ++ | ++ | +++ | + | + | ++ | + |  |  |  |
| TCN2-Cbl: complex of transcobalamin 2 (TCN2) with cobalamin (vitamin B12) (protein, UniProt P20062 19-427, looked up, complexed with cobalamin) Transcobalamin-2: EMCEIPEMDSHLVEKLGQHLLPWMDRLSLEHLNPSIYVGLRLSSLQAGTKEDLYLHSLKLGYQQCLLGSAFSEDDGDCQGKPSMGQLALYLLALRANCEFVRGHKGDRLVSQLKWFLEDEKRAIGHDHKGHPHTSYYQYGLGILALCLHQKRVHDSVVDKLLYAVEPFHQGHHSVDTAAMAGLAFTCLKRSNFNPGRRQRITMAIRTVREEILKAQTPEGHFGNVYSTPLALQFLMTSPMRGAELGTACLKARVALLASLQDGAFQNALMISQLLPVLNHKTYIDLIFPDCLAPRVMLEPAAETIPQTQEIISVTLQVLSLLPPYRQSISVLAGSTVEDVLKKAHELGGFTYETQASLSGPYLTSVMGKAAGEREFWQLLRDPNTPLLQGIADYRPKDGETIELRLVSW |  |  |  |  |  |  |  |  |  |  |  |  |  |  | 1 to 15 |  |  |
| TCN1: plasma glycoprotein chaperone of cobalamin, sialylated and desialylated forms (protein, UniProt P20061 24-433, looked up) Transcobalamin-1: EICEVSEENYIRLKPLLNTMIQSNYNRGTSAVNVVLSLKLVGIQIQTLMQKMIQQIKYNVKSRLSDVSSGELALIILALGVCRNAEENLIYDYHLIDKLENKFQAEIENMEAHNGTPLTNYYQLSLDVLALCLFNGNYSTAEVVNHFTPENKNYYFGSQFSVDTGAMAVLALTCVKKSLINGQIKADEGSLKNISIYTKSLVEKILSEKKENGLIGNTFSTGEAMQALFVSSDYYNENDWNCQQTLNTVLTEISQGAFSNPNAAAQVLPALMGKTFLDINKDSSCVSASGNFNISADEPITVTPPDSQSYISVNYSVRINETYFTNVTVLNGSVFLSVMEKAQKMNDTIFGFTMEERSWGPYITCIQGLCANNNDRTYWELLSGGEPLSQGAGSYVVRNGENLEVRWSKY |  |  |  |  |  |  |  |  |  |  |  |  |  |  |  | a few minutes | about 10 days |
